Results on 1 molecule are retold here after PMC7933930, “Development of a small molecule that corrects misfolding and increases secretion of Z α1‐antitrypsin” (EMBO Molecular Medicine, 2021).

One data set addresses Aurora B (STK12) (Homo sapiens, UniProt Q96GD4). The data set can be described thus: Off‐target panel: Aurora B (STK12). The data set is classed as biochemical. The following applies: Inhibition, read-out: Mean (PXC50). How it is done: (§1) GSK716 selectivity and PK properties were profiled in order to investigate the suitability of GSK716 for progression into in vivo studies and the potential for taking it forward as a clinical candidate for testing in humans. Since GSK716 results in loss of inhibitory activity of α1‐antitrypsin, the effect of the compound was assessed on other closely related serpins. […] Furthermore, there were no off‐target effects in a panel of assays considered predictive of known safety liabilities that precluded further development of GSK716 (Table EV1).

The next data set concerns the target T1, Muscarinic M1 (Homo sapiens, UniProt P11229).
T1 sequence (P11229 1-460): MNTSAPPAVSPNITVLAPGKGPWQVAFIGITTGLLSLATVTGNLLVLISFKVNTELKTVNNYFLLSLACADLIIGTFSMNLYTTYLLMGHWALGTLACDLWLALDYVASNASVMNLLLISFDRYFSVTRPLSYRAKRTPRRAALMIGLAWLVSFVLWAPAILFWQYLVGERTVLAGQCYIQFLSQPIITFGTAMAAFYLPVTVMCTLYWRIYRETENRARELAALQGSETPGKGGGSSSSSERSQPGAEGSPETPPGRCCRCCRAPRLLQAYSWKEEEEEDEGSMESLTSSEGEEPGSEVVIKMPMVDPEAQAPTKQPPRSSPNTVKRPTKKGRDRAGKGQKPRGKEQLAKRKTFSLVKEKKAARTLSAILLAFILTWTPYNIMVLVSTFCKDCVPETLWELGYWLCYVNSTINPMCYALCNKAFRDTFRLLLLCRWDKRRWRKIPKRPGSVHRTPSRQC
The data set can be described thus: Off‐target panel: Muscarinic M1. In kind it is cell-based. How it is done:
as §1

The target in another data set is Adenosine A2a (Homo sapiens, UniProt P29274). The data set can be described thus: Off‐target panel: Adenosine A2a. In kind it is cell-based. The following applies: Agonist, read-out: Mean (PXC50). How it is done: as §1
Sequence of Adenosine A2a (P29274 whole entry): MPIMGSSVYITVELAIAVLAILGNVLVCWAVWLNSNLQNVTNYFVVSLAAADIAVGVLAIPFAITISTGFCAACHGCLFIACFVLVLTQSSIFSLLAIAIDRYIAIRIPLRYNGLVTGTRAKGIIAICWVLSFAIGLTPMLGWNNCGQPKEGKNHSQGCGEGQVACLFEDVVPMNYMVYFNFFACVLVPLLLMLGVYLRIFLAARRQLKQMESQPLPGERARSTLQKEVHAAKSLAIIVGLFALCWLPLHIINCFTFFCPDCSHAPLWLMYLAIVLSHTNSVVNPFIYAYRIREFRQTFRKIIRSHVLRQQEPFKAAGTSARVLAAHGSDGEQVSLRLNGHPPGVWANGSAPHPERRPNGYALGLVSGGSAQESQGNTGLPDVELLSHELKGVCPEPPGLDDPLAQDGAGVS
In another data set the target is OPRK1 (Homo sapiens, UniProt P41145). The data set can be described thus: Off‐target panel: OPRK1 (DRX). In kind it is cell-based. How it is done:
as §1

Another data set addresses PDE4B (Homo sapiens, UniProt Q07343). The data set can be described thus: Off‐target panel: PDE4B. The data set is classed as biochemical. The following applies: Inhibition, read-out: Mean (PXC50). How it is done:
as §1

Another data set addresses Z α1‐antitrypsin (Homo sapiens, UniProt P01009, E366K). As to the kind of experiment: Competition binding assay with Alexa488‐labelled analogue of GSK716, Z α1‐antitrypsin. Also noted: purified from the plasma of Z α1‐antitrypsin homozygotes; from tissue; host or cells: human plasma of Z α1-antitrypsin homozygotes. Particulars: n = 18, mean ± SD, read-out: mean pKD (converted). An excerpt: The shape of the curves and native mass spectrometry (not shown) are consistent with a single high‐affinity compound binding site. No binding of the fluorescent derivative to polymers of Z α1‐antitrypsin was observed, indicating conformational selectivity for the monomeric protein (Fig 1D). The rate of interaction of the compound with the target was monitored through changes in intrinsic tryptophan fluorescence (Dafforn et al, 1999); this property was used to determine the second‐order association rate constants for GSK716 binding to Z (4.1 × 10^4 M^−1 s^−1) and M α1‐antitrypsin (2.1 × 10^2 M^−1 s^−1; Fig 1E and F). […] Therefore, the selectivity of the compound for Z over M α1‐antitrypsin is dominated by the difference in the rate of association rather than dissociation.
Kinetic parameters of GSK716 binding to M, Z, S (Glu264Val) and Baghdad (Ala336Pro) (Haq et al, 2016) α1‐antitrypsin were measured by detecting intrinsic tryptophan fluorescence of the protein (excitation at 280 nm and detection of emission at 320 nm) on a stopped flow apparatus (Applied Photophysics) (Kim & Yu, 1996; Dafforn et al, 1999). […]

The next data set has as its target Dopamine D2 (DRD2S) (Homo sapiens, UniProt P14416). The data set can be described thus: Off‐target panel: Dopamine D2 (DRD2S) (DRX). The data set is classed as cell-based. How it is done: as §1
In data set [1] the test system is Z α1‐antitrypsin secretion in CHO‐TET‐ON‐Z‐A1AT cells. As to the kind of experiment: Secretion of Z α1‐antitrypsin from CHO‐TET‐ON‐Z‐A1AT cells (TR‐FRET). The data set is classed as cell-based. The following applies: n = 74, read-out: mean pEC50, secretion of Z α1‐antitrypsin (converted).
In the next data set the test system is mouse hepatocytes. As to the kind of experiment: Hepatocyte clearance, mouse. In kind it is in vitro ADME. How it is done:
Williams E media supplemented with 2 mM L‐glutamine and 25 mM HEPES and test compound (final compound concentration 0.5 µM; final DMSO concentration 0.25% v/v) were preincubated at 37°C prior to the addition of a suspension of cryopreserved pooled hepatocytes (final cell density 0.5 × 10^6 viable cells/ml) to initiate the reaction. The final incubation volume was 500 µl. The reactions were stopped by transferring 50 µl of incubate to 100 µl acetonitrile containing internal standard at the appropriate time points (0, 5, 10, 20, 40 and 60 min, 0, 10, 20, 40, 60 and 120 min or 0, 20, 40, 60, 120 and 240 min). The control (lysed cells or vehicle) was incubated for 60, 120 or 240 min only. The termination plates were centrifuged at 2,500 rpm at 4°C for 30 min to precipitate the protein. Following protein precipitation, the sample supernatants were analysed by LC‐MS/MS. From a plot of loge peak area ratio (compound peak area/internal standard peak area) against time, the gradient of the line was determined and half‐life (t½) and intrinsic clearance (CLint) were calculated.

Sequence of Dopamine D2 (DRD2S) (P14416 1-414 isoform P14416-2): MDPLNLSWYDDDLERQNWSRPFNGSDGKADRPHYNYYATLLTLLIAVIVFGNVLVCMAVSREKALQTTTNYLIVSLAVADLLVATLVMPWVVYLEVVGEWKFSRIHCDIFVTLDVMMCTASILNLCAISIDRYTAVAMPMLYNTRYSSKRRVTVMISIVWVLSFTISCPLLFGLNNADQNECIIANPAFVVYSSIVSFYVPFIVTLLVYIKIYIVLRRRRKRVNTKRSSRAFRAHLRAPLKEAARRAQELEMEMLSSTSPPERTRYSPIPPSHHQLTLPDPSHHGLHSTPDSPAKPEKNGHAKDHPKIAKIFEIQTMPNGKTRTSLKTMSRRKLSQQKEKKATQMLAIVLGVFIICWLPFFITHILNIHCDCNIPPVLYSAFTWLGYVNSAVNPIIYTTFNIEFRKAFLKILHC
Sequence of OPRK1 (P41145 whole entry, species assumed): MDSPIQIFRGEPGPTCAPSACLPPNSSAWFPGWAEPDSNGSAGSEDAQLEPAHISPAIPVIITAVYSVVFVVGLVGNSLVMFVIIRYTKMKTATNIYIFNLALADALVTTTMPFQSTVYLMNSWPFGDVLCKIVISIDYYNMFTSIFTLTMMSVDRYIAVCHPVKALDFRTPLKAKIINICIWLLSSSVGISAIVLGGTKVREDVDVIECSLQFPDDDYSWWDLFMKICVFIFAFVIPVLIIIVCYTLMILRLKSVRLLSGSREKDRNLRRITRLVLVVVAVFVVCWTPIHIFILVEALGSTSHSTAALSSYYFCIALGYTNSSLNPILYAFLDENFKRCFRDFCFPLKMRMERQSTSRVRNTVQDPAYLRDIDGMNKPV
Sequence of Z α1‐antitrypsin (P01009 25-418 E366K): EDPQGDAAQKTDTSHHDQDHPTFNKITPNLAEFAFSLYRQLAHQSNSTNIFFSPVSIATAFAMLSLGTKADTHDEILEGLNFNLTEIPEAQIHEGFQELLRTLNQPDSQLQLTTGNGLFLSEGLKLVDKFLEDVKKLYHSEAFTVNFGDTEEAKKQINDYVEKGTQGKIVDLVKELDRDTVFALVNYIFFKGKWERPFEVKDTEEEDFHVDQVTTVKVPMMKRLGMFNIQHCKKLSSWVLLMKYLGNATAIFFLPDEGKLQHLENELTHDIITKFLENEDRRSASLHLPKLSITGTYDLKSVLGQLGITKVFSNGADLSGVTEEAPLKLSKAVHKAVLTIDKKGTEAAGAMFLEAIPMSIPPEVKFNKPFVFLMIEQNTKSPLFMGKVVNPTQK
Sequence of PDE4B (Q07343 whole entry, species assumed): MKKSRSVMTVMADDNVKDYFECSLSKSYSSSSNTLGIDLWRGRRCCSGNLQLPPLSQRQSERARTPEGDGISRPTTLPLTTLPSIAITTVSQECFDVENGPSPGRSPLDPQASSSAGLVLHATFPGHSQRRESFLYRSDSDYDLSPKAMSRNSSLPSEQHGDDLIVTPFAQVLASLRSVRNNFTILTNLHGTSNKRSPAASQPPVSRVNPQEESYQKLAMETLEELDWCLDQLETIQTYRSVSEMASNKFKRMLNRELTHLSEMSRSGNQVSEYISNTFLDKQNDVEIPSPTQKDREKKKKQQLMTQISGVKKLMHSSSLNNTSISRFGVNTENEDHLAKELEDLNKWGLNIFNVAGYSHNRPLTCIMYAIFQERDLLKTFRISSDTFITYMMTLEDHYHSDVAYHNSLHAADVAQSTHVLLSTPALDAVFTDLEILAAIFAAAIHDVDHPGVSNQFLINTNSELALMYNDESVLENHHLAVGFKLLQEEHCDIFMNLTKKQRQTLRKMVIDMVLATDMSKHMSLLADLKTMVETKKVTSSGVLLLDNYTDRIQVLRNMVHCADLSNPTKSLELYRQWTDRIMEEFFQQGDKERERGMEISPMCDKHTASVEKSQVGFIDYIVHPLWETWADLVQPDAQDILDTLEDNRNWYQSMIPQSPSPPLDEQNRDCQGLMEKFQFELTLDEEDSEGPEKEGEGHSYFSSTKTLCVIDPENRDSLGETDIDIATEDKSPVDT
Sequence of Aurora B (STK12) (Q96GD4 whole entry, species assumed): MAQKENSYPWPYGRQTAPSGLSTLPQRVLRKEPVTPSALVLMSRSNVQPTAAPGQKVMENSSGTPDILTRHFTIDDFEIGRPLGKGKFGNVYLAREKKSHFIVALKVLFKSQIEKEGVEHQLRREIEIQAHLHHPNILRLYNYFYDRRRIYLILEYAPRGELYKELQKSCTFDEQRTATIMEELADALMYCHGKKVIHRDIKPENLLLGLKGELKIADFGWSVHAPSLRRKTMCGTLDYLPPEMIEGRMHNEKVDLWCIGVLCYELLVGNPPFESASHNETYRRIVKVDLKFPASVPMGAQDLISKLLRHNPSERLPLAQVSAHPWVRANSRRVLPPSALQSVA

Consider `CCC[C@@H](NC(=O)c1cccc2c1CC(=O)N2)[C@@H](O)c1cccc(F)c1C` [GSK716], for which the IC50 at Aurora B (STK12) is above 31.6 µM; on Muscarinic M1, above 50.1 µM; at PDE4B, above 100 µM; against Dopamine D2 (DRD2S), above 100 µM. In addition, the EC50 at Muscarinic M1 was above 50.1 µM; at Adenosine A2a, above 100 µM; at OPRK1 it was 20 µM; on Dopamine D2 (DRD2S), above 100 µM; in data set [1], 0.631 µM. Moreover, the Kd on Z α1‐antitrypsin is 0.00316 µM. In addition, the “metabolic clearance in mouse hepatocytes” value in the data set with mouse hepatocytes is 4.56 ml/min/g tissue.
